Experimental data published in US6444617B1, “Fused-heterocycle dicarboxylic acid diamide derivatives or salts thereof, herbicide and usage thereof” (Nihon Nohyaku Co., Ltd., priority 1998, dated 2002).

Key:
Assay type in all cases: in vivo
[1] = system: barnyard grass (Echinochloa crus-galli Beauv.); test: Test Example 1: herbicidal effect on paddy field weeds before emergence; settings: Dosage 5 kg/ha
In short: (§1)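 Grading reflects percent control relative to untreated plots, evaluated three weeks post-application. Treatment was a soil application of compound solution, predetermined dose, made to paddy-state pots before weed seeds germinated.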

[2] = system: bulrush (Scirpus juncoides Roxb.); test: as above; settings: Dosage 5 kg/ha
In short: as §1

[3] = system: barnyard grass (Echinochloa crus-galli Beauv.); test: Test Example 2: herbicidal effect on paddy field weeds after emergence; settings: Dosage 5 kg/ha; one-leaved stage; 21 days after treatment
In short: (§2)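 Weeds were sown in 1/10000 are pots of soil flooded to paddy conditions and grown to the one-leaf stage, then the soil was treated with a solution of compound at a predetermined dosage.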

[4] = system: bulrush (Scirpus juncoides Roxb.); test: as above; settings: Dosage 5 kg/ha; one-leaved stage; 21 days after treatment
In short: as §2

[5] = system: monochoria (Monochoria vaginalis Presl); test: as above; settings: Dosage 5 kg/ha; one-leaved stage; 21 days after treatment
In short: as §2

[6] = system: barnyard grass (Echinochloa crus-galli Beauv.), Ec; test: Test Example 3: herbicidal effect on upland weeds before emergence; settings: dosage 5 kg/ha
In short: (§3)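 Steps: sow upland weed seeds; spray liquid formulation of active ingredient at prescribed concentration prior to emergence; after 14 days, calculate weed-killing rate; judge herbicidal effect.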

[7] = system: bird's eye speedwell (Veronica persica Poir.), Vp; test: as above; settings: dosage 5 kg/ha
In short: as §3

[8] = system: cleavers (Galium aparine L.), Ga; test: as above; settings: dosage 5 kg/ha
In short: as §3

[9] = system: cocklebur (Xanthium strumarium L.), Xs; test: as above; settings: dosage 5 kg/ha
In short: as §3

[10] = system: forxtail grass (Alopecurus aequalis var. amurensis Ohwi), Am; test: as above; settings: foxtail grass, dosage 5 kg/ha
In short: as §3

[11] = system: velvetleaf (Abutilon theophtasti L.), At; test: as above; settings: dosage 5 kg/ha
In short: as §3

soybean plant (So) = test: Test Example 3: phytotoxicity to upland crop plants, treatment before emergence; settings: dosage 5 kg/ha
In short: (§4)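 Compound formulated as a liquid agent at a prescribed concentration is sprayed before crop emergence. After fourteen days, damage to soybean and wheat is examined and rated by a judgment criterion.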

wheat (Wh) = test: as above; settings: dosage 5 kg/ha
In short: as §4

[12] = system: barnyard grass (Echinochloa crus-galli Beauv.), Ec; test: Test Example 4: herbicidal effect on upland weeds after emergence; settings: dosage 5 kg/ha; sprayed after emergence; judged 14 days after treatment
In short: (§5)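 Scores of weed-killing rate, with crop phytotoxicity, come from inspection 14 days after plants in soil vats, grown to specified leaf stages, are sprayed with a formulation holding the compound at a prescribed concentration.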

[13] = system: bird's eye speedwell (Veronica persica Poir.), Vp; test: as above; settings: dosage 5 kg/ha; sprayed after emergence; judged 14 days after treatment
In short: as §5

[14] = system: cleavers (Galium aparine L.), Ga; test: as above; settings: dosage 5 kg/ha; sprayed after emergence; judged 14 days after treatment
In short: as §5

[15] = system: cocklebur (Xanthium strumarium L.), Xs; test: as above; settings: dosage 5 kg/ha; sprayed after emergence; judged 14 days after treatment
In short: as §5

[16] = system: forxtail grass (Alopecurus aequalis var. amurensis Ohwi), Am; test: as above; settings: dosage 5 kg/ha; sprayed after emergence; judged 14 days after treatment
In short: as §5

[17] = system: velvetleaf (Abutilon theophtasti L.), At; test: as above; settings: dosage 5 kg/ha; sprayed after emergence; judged 14 days after treatment
In short: as §5

soybean plant = test: Test Example 4: phytotoxicity to upland crop plants, treatment after emergence; settings: dosage 5 kg/ha, sprayed after emergence, judged 14 days after treatment
In short: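 Seeds sown in soil and covered. Plants raised to specified leaf stages. Agent with test compound at a prescribed concentration sprayed. Herbicidal effect and crop damage scored after 14 days as weed-killing rate.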

wheat = test: as above; settings: dosage 5 kg/ha, sprayed after emergence, judged 14 days after treatment
In short: as §5

SMILES: CCCNC(=O)c1nc2c(cc1C(=O)Nc1c(CC)ccc(Cl)c1CC)nc(C)n2C [compound 1294]
- Pre-emergence treatment Barnyard grass (herbicidal effect) [1]: 5 (Weed-killing rate is 100%.)
- Pre-emergence treatment Bulrush (herbicidal effect) [2]: 5 (Weed-killing rate is 100%.)
- Post-emergence treatment Barnyard grass (herbicidal effect) [3]: 5 (Weed-killing rate is 100%.)
- Post-emergence treatment Bulrush (herbicidal effect) [4]: 5 (Weed-killing rate is 100%.)
- Post-emergence treatment Monochoria (herbicidal effect) [5]: 5 (Weed-killing rate is 100%.)
- Herbicidal effect Ec [6]: 5 (Weed-killing rate is 100%.)
- Herbicidal effect Vp [7]: 5 (Weed-killing rate is 100%.)
- Herbicidal effect Ga [8]: 5 (Weed-killing rate is 100%.)
- Herbicidal effect Xs [9]: 5 (Weed-killing rate is 100%.)
- Herbicidal effect Am [10]: 5 (Weed-killing rate is 100%.)
- Herbicidal effect At [11]: 5 (Weed-killing rate is 100%.)
- Phytotoxicity So (soybean plant (So)): 4 (Crop-killing rate is 90-99%.)
- Phytotoxicity Wh (wheat (Wh)): 5 (Crop-killing rate is 100%.)
- Herbicidal effect Ec [12]: 5 (Weed-killing rate is 100%.)
- Herbicidal effect Vp [13]: 5 (Weed-killing rate is 100%.)
- Herbicidal effect Ga [14]: 5 (Weed-killing rate is 100%.)
- Herbicidal effect Xs [15]: 5 (Weed-killing rate is 100%.)
- Herbicidal effect Am [16]: 5 (Weed-killing rate is 100%.)
- Herbicidal effect At [17]: 5 (Weed-killing rate is 100%.)
- Phytotoxicity So (soybean plant): 4 (Crop-killing rate is 90-99%.)
- Phytotoxicity Wh (wheat): 5 (Crop-killing rate is 100%.)

SMILES: CCNC(=O)c1nc2ccccc2nc1C(=O)Nc1c(CC)ccc(Cl)c1CC [compound 1305]
- Pre-emergence treatment Barnyard grass (herbicidal effect) [1]: 5 (Weed-killing rate is 100%.)
- Pre-emergence treatment Bulrush (herbicidal effect) [2]: 5 (Weed-killing rate is 100%.)
- Post-emergence treatment Barnyard grass (herbicidal effect) [3]: 5 (Weed-killing rate is 100%.)
- Post-emergence treatment Bulrush (herbicidal effect) [4]: 5 (Weed-killing rate is 100%.)
- Post-emergence treatment Monochoria (herbicidal effect) [5]: 5 (Weed-killing rate is 100%.)
- Herbicidal effect Ec [6]: 5 (Weed-killing rate is 100%.)
- Herbicidal effect Vp [7]: 5 (Weed-killing rate is 100%.)
- Herbicidal effect Ga [8]: 5 (Weed-killing rate is 100%.)
- Herbicidal effect Xs [9]: 5 (Weed-killing rate is 100%.)
- Herbicidal effect Am [10]: 5 (Weed-killing rate is 100%.)
- Herbicidal effect At [11]: 5 (Weed-killing rate is 100%.)
- Phytotoxicity So (soybean plant (So)): 5 (Crop-killing rate is 100%.)
- Phytotoxicity Wh (wheat (Wh)): 5 (Crop-killing rate is 100%.)
- Herbicidal effect Ec [12]: 5 (Weed-killing rate is 100%.)
- Herbicidal effect Vp [13]: 5 (Weed-killing rate is 100%.)
- Herbicidal effect Ga [14]: 5 (Weed-killing rate is 100%.)
- Herbicidal effect Xs [15]: 5 (Weed-killing rate is 100%.)
- Herbicidal effect Am [16]: 5 (Weed-killing rate is 100%.)
- Herbicidal effect At [17]: 5 (Weed-killing rate is 100%.)
- Phytotoxicity So (soybean plant): 5 (Crop-killing rate is 100%.)
- Phytotoxicity Wh (wheat): 5 (Crop-killing rate is 100%.)

SMILES: CCCNC(=O)c1nc2ccccc2nc1C(=O)Nc1c(CC)ccc(Cl)c1CC [compound 1306]
- Pre-emergence treatment Barnyard grass (herbicidal effect) [1]: 5 (Weed-killing rate is 100%.)
- Pre-emergence treatment Bulrush (herbicidal effect) [2]: 5 (Weed-killing rate is 100%.)
- Post-emergence treatment Barnyard grass (herbicidal effect) [3]: 5 (Weed-killing rate is 100%.)
- Post-emergence treatment Bulrush (herbicidal effect) [4]: 5 (Weed-killing rate is 100%.)
- Post-emergence treatment Monochoria (herbicidal effect) [5]: 5 (Weed-killing rate is 100%.)
- Herbicidal effect Ec [6]: 5 (Weed-killing rate is 100%.)
- Herbicidal effect Vp [7]: 5 (Weed-killing rate is 100%.)
- Herbicidal effect Ga [8]: 5 (Weed-killing rate is 100%.)
- Herbicidal effect Xs [9]: 5 (Weed-killing rate is 100%.)
- Herbicidal effect Am [10]: 5 (Weed-killing rate is 100%.)
- Herbicidal effect At [11]: 5 (Weed-killing rate is 100%.)
- Phytotoxicity So (soybean plant (So)): 5 (Crop-killing rate is 100%.)
- Phytotoxicity Wh (wheat (Wh)): 5 (Crop-killing rate is 100%.)
- Herbicidal effect Ec [12]: 5 (Weed-killing rate is 100%.)
- Herbicidal effect Vp [13]: 5 (Weed-killing rate is 100%.)
- Herbicidal effect Ga [14]: 5 (Weed-killing rate is 100%.)
- Herbicidal effect Xs [15]: 5 (Weed-killing rate is 100%.)
- Herbicidal effect Am [16]: 5 (Weed-killing rate is 100%.)
- Herbicidal effect At [17]: 5 (Weed-killing rate is 100%.)
- Phytotoxicity So (soybean plant): 5 (Crop-killing rate is 100%.)
- Phytotoxicity Wh (wheat): 5 (Crop-killing rate is 100%.)

SMILES: CCc1ccc(Cl)c(CC)c1NC(=O)c1nc2ccccc2nc1C(=O)NCC(C)C [compound 1311]
- Pre-emergence treatment Barnyard grass (herbicidal effect) [1]: 5 (Weed-killing rate is 100%.)
- Pre-emergence treatment Bulrush (herbicidal effect) [2]: 5 (Weed-killing rate is 100%.)
- Post-emergence treatment Barnyard grass (herbicidal effect) [3]: 5 (Weed-killing rate is 100%.)
- Post-emergence treatment Bulrush (herbicidal effect) [4]: 5 (Weed-killing rate is 100%.)
- Post-emergence treatment Monochoria (herbicidal effect) [5]: 5 (Weed-killing rate is 100%.)
- Herbicidal effect Ec [6]: 5 (Weed-killing rate is 100%.)
- Herbicidal effect Vp [7]: 5 (Weed-killing rate is 100%.)
- Herbicidal effect Ga [8]: 5 (Weed-killing rate is 100%.)
- Herbicidal effect Xs [9]: 5 (Weed-killing rate is 100%.)
- Herbicidal effect Am [10]: 5 (Weed-killing rate is 100%.)
- Herbicidal effect At [11]: 5 (Weed-killing rate is 100%.)
- Phytotoxicity So (soybean plant (So)): 5 (Crop-killing rate is 100%.)
- Phytotoxicity Wh (wheat (Wh)): 5 (Crop-killing rate is 100%.)
- Herbicidal effect Ec [12]: 5 (Weed-killing rate is 100%.)
- Herbicidal effect Vp [13]: 5 (Weed-killing rate is 100%.)
- Herbicidal effect Ga [14]: 5 (Weed-killing rate is 100%.)
- Herbicidal effect Xs [15]: 5 (Weed-killing rate is 100%.)
- Herbicidal effect Am [16]: 5 (Weed-killing rate is 100%.)
- Herbicidal effect At [17]: 5 (Weed-killing rate is 100%.)
- Phytotoxicity So (soybean plant): 5 (Crop-killing rate is 100%.)
- Phytotoxicity Wh (wheat): 5 (Crop-killing rate is 100%.)
